# Measured values reported in paper PMC12388300, “The Chelating Abilities of Tertiary Amines with N-O-Donors Towards Cu(II) Ions and the Catalytic Properties of the Resulting Complexes” (Molecules, 2025).
# What was measured:
# [1] = cited from earlier work; for IC50: CytC assay, read-out: IC50 (SOD activity)
# [2] = Potentiometric titration: stability constants and speciation of in situ-formed Cu(II) complexes; type: physicochemical; settings: for logβi of [Cu(HLx)H]^3+ / logβi of [Cu(HLx)]^2+ / logβi of [Cu(Lx)(OH)2]^− / logβi of [Cu(Lx)(OH)] / logβi of [Cu(Lx)]^+: overall stability constant, in situ-formed complex, I = 0.1 M, 25 °C; for pH of maximum concentration of [Cu(HLx)H]^3+: speciation curves, ligand/copper(II) 1:1; for pKi of [Cu(Lx)(OH)2]^− / pKi of [Cu(Lx)(OH)] / pKi of [Cu(Lx)]^+ / pKi of [Cu(HLx)]^2+: stepwise stability constant; for pKi of [Cu(HLx)]^2+: [Cu(HLx)H]^3+ ⇄ [Cu(HLx)]^2+ + H^+
# Procedure: Based on the potentiometric studies, the overall and stepwise stability constants of formed complexes were obtained and collected in Table 2; the speciation curves of in situ-formed complexes are presented in Figure 2.
# (§1) Potentiometric measurements were performed using a Metrohm pH-meter system equipped with a semi-micro combination electrode, at 25 °C. The system was calibrated based on hydrogen ion concentration using HCl. Ligands were prepared in a 5% (v/v) DMSO solution with water containing HCl/KCl with a constant ionic strength of I = 0.1 M to achieve a final concentration of 1 mM and 0.6 mM of HL1 and HL5, respectively. Titrations were conducted by incrementally adding 0.1 M KOH using a microsyringe at 25°C, spanning a pH interval from 2.5 to 11.5, under an argon atmosphere. The stability constants and complex stoichiometries were determined from the titration data using the SUPERQUAD and HYPERQUAD programs.
# [3] = Potentiometric titration: protonation constants of the ligands; type: physicochemical; settings: I = 0.1 M, 25 °C; for logβi, Lx^− + 2H^+ ⇌ [(HLx)H]^+ / logβi, Lx^− + 3H^+ ⇌ [(HLx)H2]^2+ / logβi, Lx^− + 4H^+ ⇌ [(HLx)H3]^3+ / logβi, Lx^− + H^+ ⇌ HLx: overall protonation constant, 5% v/v DMSO/H2O, HCl/KCl; for logKi, Lx^− + H^+ ⇌ HLx: stepwise protonation constant (phenolic group); for logKi, HLx + H^+ ⇌ [(HLx)H]^+ / logKi, [(HLx)H2]^2+ + H^+ ⇌ [(HLx)H3]^3+ / logKi, [(HLx)H]^+ + H^+ ⇌ [(HLx)H2]^2+: stepwise protonation constant
# Procedure: Initially, potentiometric measurements were performed to investigate the binding abilities of the ligands in an aqueous environment at different pH levels and to construct the corresponding speciation curves (Figure 1). The analyses were performed in HCl/KCl mixtures, with KCl used to maintain a constant ionic strength of 0.1 mol·dm^−3. The first step of the potentiometric studies was the assessment of the acid-base properties of both ligands. The overall and stepwise protonation constants are collected in Table 1.
# as §1
smiles,measurement,setting,value
O=S(=O)([O-])[O-].[Cu+2] [CuSO4],IC50,[1],72.2 µM
same,Log (kcat),[1],~6
"Oc1ccccc1CN(Cc1ccccn1)Cc1ccccn1 [HL1, N-(2-hydroxylbenzyl)-N,N-bis(2-pyridylmethyl)amine]",metal ion binding efficiency in the competition diagram,"[2]; HL1:Cu(II):HL5 molar ratio 1:1:1, pH 3 to 11",significantly less efficient in metal ion binding
same,logβi of [Cu(HLx)H]^3+,[2],22.67 ± 0.06
same,logβi of [Cu(HLx)]^2+,[2],16.84 ± 0.08
same,logβi of [Cu(Lx)(OH)2]^−,[2],−10.42 ± 0.09
same,logβi of [Cu(Lx)(OH)],[2],0.03 ± 0.09
same,logβi of [Cu(Lx)]^+,[2],9.73 ± 0.08
same,pH of maximum concentration of [Cu(HLx)H]^3+,[2],4.5
same,pKi of [Cu(Lx)(OH)2]^−,[2],10.45
same,pKi of [Cu(Lx)(OH)],[2],9.70
same,pKi of [Cu(Lx)]^+,[2],7.11
same,pKi of [Cu(HLx)]^2+,[2],5.83
same,"logβi, Lx^− + 2H^+ ⇌ [(HLx)H]^+",[3],16.29 ± 0.02
same,"logβi, Lx^− + 3H^+ ⇌ [(HLx)H2]^2+",[3],21.53 ± 0.02
same,"logβi, Lx^− + 4H^+ ⇌ [(HLx)H3]^3+",[3],25.24 ± 0.02
same,"logβi, Lx^− + H^+ ⇌ HLx",[3],9.99 ± 0.01
same,"logKi, Lx^− + H^+ ⇌ HLx",[3],9.99
same,"logKi, HLx + H^+ ⇌ [(HLx)H]^+",[3],6.30
same,"logKi, [(HLx)H2]^2+ + H^+ ⇌ [(HLx)H3]^3+",[3],3.71
same,"logKi, [(HLx)H]^+ + H^+ ⇌ [(HLx)H2]^2+",[3],5.24
"COc1cccc(CN(Cc2ccccn2)Cc2ccccn2)c1O [HL5, 2-{[Bis(pyridin-2-ylmethyl)amino]methyl}-6-methoxyphenol]",logβi of [Cu(HLx)H]^3+,[2],23.43 ± 0.08
same,logβi of [Cu(HLx)]^2+,[2],18.04 ± 0.10
same,logβi of [Cu(Lx)(OH)2]^−,[2],−8.56 ± 0.11
same,logβi of [Cu(Lx)(OH)],[2],1.77 ± 0.11
same,logβi of [Cu(Lx)]^+,[2],11.51 ± 0.10
same,pH of maximum concentration of [Cu(HLx)H]^3+,[2],3.5
same,pKi of [Cu(Lx)(OH)2]^−,[2],10.33
same,pKi of [Cu(Lx)(OH)],[2],9.74
same,pKi of [Cu(Lx)]^+,[2],6.53
same,pKi of [Cu(HLx)]^2+,[2],5.39
same,"logβi, Lx^− + 2H^+ ⇌ [(HLx)H]^+",[3],15.77 ± 0.02
same,"logβi, Lx^− + 3H^+ ⇌ [(HLx)H2]^2+",[3],20.71 ± 0.02
same,"logβi, Lx^− + 4H^+ ⇌ [(HLx)H3]^3+",[3],24.43 ± 0.02
same,"logβi, Lx^− + H^+ ⇌ HLx",[3],9.52 ± 0.01
same,"logKi, Lx^− + H^+ ⇌ HLx",[3],9.52
same,"logKi, HLx + H^+ ⇌ [(HLx)H]^+",[3],6.25
same,"logKi, [(HLx)H2]^2+ + H^+ ⇌ [(HLx)H3]^3+",[3],3.72
same,"logKi, [(HLx)H]^+ + H^+ ⇌ [(HLx)H2]^2+",[3],4.94
O=C([O-])CCN(Cc1ccccn1)Cc1ccccn1.[Cu+2] [[Cu(BPMPA)]^+],IC50,[1],1.04 µM
same,Log (kcat),[1],7.09
